Consider 8 compounds from patent US9796733B2, “Imidazo-pyrazine derivatives useful as soluble guanylate cyclase activators” (Merck Sharp & Dohme Corp., priority 2014, dated 2017).

Each structure is given as a SMILES string.

Assay [1] deals with Spontaneously hypertensive rats (SHR). Put plainly: Acute efficacy in spontaneously hypertensive rats (SHR): telemetry blood pressure lowering after a single oral dose. Type of assay: in vivo, rat. An excerpt: Acute Efficacy in Spontaneously Hypertensive Rats (SHR)
Spontaneously hypertensive rats (SHR, male, Charles River) were implanted with DSI TA11PA-C40 telemetry device (Data Sciences, Inc., St. Paul, Minn.) under isoflurane or ketamine/metomidine anesthesia. The telemetry unit catheter was inserted into the descending aorta via the femoral artery and the telemetry device was implanted subcutaneously in the left flank area. Animals were allowed to recover from surgery for 14 days before the start of any studies. Blood pressure, heart rate, and activity signals from conscious, freely moving rats were recorded continuously for 30 seconds every 10 minutes. On the day prior to administration of compound, a single oral dose of vehicle (10% transcutol/20% Cremophor/70% water) was administered to all animals to establish baseline control data. The blood pressure lowering efficacy of compound (PO) or vehicle was evaluated following a single oral gavage. Data were collected as hourly averages, and changes in blood pressure were calculated by subtracting control baseline data on an hourly basis. Animals were maintained on normal diet with a 12 hour light-dark cycle.
Maximum peak decreases of systolic blood pressure (SBP) in SHR at a particular P.O. dose (mpk milligrams per kilogram) for the following representative compounds are provided. Category A=SBP in SHRs<20 mmHg; Category B=SBP in SHRs 20-40 mmHg; Category C=SBP in SHRs>40 mmHg

In a further assay the target is T1, sGC α1/β1 heterodimer (Homo sapiens, UniProt Q02108+Q02153).
T1 construct: expressed in transfected cells; host or cells: CHO-K1 (clone #7, CHO-K1/sGC)
T1 sequence (Q02108 1-690): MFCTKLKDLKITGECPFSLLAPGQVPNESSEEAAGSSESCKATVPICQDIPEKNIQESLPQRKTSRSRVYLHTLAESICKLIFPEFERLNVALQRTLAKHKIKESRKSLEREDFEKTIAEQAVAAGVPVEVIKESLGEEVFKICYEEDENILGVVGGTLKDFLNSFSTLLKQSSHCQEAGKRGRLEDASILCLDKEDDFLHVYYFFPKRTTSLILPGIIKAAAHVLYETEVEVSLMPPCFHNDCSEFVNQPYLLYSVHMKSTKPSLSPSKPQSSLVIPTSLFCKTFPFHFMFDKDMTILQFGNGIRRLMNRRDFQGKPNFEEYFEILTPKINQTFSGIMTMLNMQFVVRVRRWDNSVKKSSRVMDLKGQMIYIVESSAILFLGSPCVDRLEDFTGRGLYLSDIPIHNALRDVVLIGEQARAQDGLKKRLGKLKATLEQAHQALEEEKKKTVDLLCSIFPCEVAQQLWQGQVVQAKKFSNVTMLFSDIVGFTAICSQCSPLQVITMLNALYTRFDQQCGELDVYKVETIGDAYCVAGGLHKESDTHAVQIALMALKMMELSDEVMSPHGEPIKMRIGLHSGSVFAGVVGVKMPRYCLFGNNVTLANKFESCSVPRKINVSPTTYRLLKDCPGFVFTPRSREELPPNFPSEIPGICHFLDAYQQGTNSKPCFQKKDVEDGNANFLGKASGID
T1 sequence (Q02153 1-619): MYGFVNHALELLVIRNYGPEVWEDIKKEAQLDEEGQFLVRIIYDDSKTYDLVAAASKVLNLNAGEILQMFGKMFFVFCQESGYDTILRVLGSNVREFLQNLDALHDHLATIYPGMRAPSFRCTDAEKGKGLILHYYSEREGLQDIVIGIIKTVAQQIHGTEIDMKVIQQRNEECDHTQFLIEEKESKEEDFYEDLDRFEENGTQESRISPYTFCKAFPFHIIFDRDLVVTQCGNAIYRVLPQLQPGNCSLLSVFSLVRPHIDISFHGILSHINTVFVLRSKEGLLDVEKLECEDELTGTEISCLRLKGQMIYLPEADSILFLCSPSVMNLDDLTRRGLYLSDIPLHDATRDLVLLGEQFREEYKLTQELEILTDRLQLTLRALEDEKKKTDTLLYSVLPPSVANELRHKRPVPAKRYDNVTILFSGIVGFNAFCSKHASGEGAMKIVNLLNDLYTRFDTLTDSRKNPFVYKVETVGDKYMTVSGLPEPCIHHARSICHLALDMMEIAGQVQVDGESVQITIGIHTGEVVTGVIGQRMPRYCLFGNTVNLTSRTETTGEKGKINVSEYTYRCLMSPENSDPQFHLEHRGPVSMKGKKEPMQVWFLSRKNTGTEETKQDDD
Put plainly: Cell-based sGC functional assay (CASA assay): cGMP generation in CHO-K1/sGC cells, HTRF detection. As to conditions: for Emax: CHO-K1, percent activation relative to standard Compound A in CHO-K1/sGC cells, read-out: % Act.; for EC50: inflection point (IP) of cGMP generation in CHO-K1/sGC cells, 4P fit, activity expressed as percentage of Compound A. An outline of the steps:
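cGMP was quantified by HTRF after 1 hr, 37° C exposure of thawed CHO-K1 cells expressing sGC α1/β1 to compound, with or without 1 μM DETA-NO. IBMX (0.5 mM) blocked cGMP breakdown, and DMSO was 2.5% final. Percent of standard Compound A's maximal cGMP was fitted (4P) for inflection point.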
For orientation: In TR-FRET formats the signal depends on donor and acceptor labels being close together.

The term EC50 denotes the midpoint of the concentration-response curve. Read a high EC50 as a less potent agent. As for `CCCCc1nc(-c2nc(N)c3c(n2)NC(=O)C3(C)c2ccc(Cl)cc2)cn2ccnc12` (stereo not drawn) [Example 10A, 4-amino-2-(8-butylimidazo[1,2-a]pyrazin-6-yl)-5-(4-chlorophenyl)-5-methyl-5H-pyrrolo[2,3-d]pyrimidin-6(7H)-one], the “Maximum peak decrease of systolic blood pressure (SBP) in SHR, Cat.” value (“Maximum peak decrease” below) in assay [1] (P.O. 0.3 mpk) is “C (Category C=SBP in SHRs>40 mmHg)”. Also, on sGC α1/β1 heterodimer, the Emax worked out at 120% and the midpoint of the response, the EC50, lay at 56 nM.
In the case of `CC(C)CCc1nc(-c2nc(N)c3c(n2)NC(=O)C3(C)c2ccc(F)cn2)cn2ccnc12` (stereo not drawn) [Example 11B, 4-amino-5-(5-fluoropyridin-2-yl)-2-(8-isopentylimidazo[1,2-a]pyrazin-6-yl)-5-methyl-5H-pyrrolo[2,3-d]pyrimidin-6(7H)-one], in assay [1] (P.O. 1.0 mpk), the “Maximum peak decrease” value is “B (Category B=SBP in SHRs 20-40 mmHg)”. On sGC α1/β1 heterodimer, the Emax came out at 135% and the EC50 came out at 46 nM.
Taken in the same sequence, the figures for `CC(C)CCc1nc(-c2nc(N)c3c(n2)NC(=O)C3(C)c2ccc(Cl)cc2)cn2ccnc12` (stereo not drawn) [Example 14A, 4-amino-5-(4-chlorophenyl)-2-(8-isopentylimidazo[1,2-a]pyrazin-6-yl)-5-methyl-5H-pyrrolo[2,3-d]pyrimidin-6(7H)-one] were “C (Category C=SBP in SHRs>40 mmHg)”, 113% and 111 nM.
Taken in the same sequence, the figures for `CC1(c2ccc(Cl)cc2)C(=O)Nc2nc(-c3cn4ccnc4c(C4CCC4)n3)nc(N)c21` (stereo not drawn) [Example 15A, 4-amino-5-(4-chlorophenyl)-2-(8-cyclobutylimidazo[1,2-a]pyrazin-6-yl)-5-methyl-5H-pyrrolo[2,3-d]pyrimidin-6(7H)-one] were “C (Category C=SBP in SHRs>40 mmHg)”, 119% and 82 nM.
Turning to `CCCCc1nc(-c2nc(N)c3c(n2)NC(=O)C3(C)c2ccc(F)cn2)cn2ccnc12` (stereo not drawn) [Example 16B, 4-amino-2-(8-butylimidazo[1,2-a]pyrazin-6-yl)-5-(5-fluoropyridin-2-yl)-5-methyl-5H-pyrrolo[2,3-d]pyrimidin-6(7H)-one], the “Maximum peak decrease” value in assay [1] (P.O. 0.3 mpk) is “C (Category C=SBP in SHRs>40 mmHg)”. Moreover, on sGC α1/β1 heterodimer, the Emax was 117% and the response was half-maximal at 134 nM (EC50).
Turning to `CC(C)Cc1nc(-c2nc(N)c3c(n2)NC(=O)C3(C)c2ccc(Cl)cc2)cn2ccnc12` (stereo not drawn) [Example 20A, 4-amino-5-(4-chlorophenyl)-2-(8-isobutylimidazo[1,2-a]pyrazin-6-yl)-5-methyl-5H-pyrrolo[2,3-d]pyrimidin-6(7H)-one], the “Maximum peak decrease” value in assay [1] (P.O. 1.0 mpk) is “C (Category C=SBP in SHRs>40 mmHg)”. Moreover, at sGC α1/β1 heterodimer, the Emax is 108% and the midpoint of the response, the EC50, lay at 231 nM.
For `CCCc1nc(-c2nc(N)c3c(n2)NC(=O)C3(c2ccc(Cl)cc2)C2CC2)cn2ccnc12` (stereo not drawn) [Example 26B, 4-amino-5-(4-chlorophenyl)-5-cyclopropyl-2-(8-propylimidazo[1,2-a]pyrazin-6-yl)-5H-pyrrolo[2,3-d]pyrimidin-6(7H)-one], the “Maximum peak decrease” value in assay [1] (P.O. 3.0 mpk) is listed as “B (Category B=SBP in SHRs 20-40 mmHg)”. For the same compound, on sGC α1/β1 heterodimer, the Emax was 81% and the 50% effective concentration (EC50) came out at 253 nM.
`CC1(c2nnc(C3CC3)s2)C(=O)Nc2nc(-c3cn4ccnc4c(Cc4ccc(F)cc4)n3)nc(N)c21` (stereo not drawn) [Example 32A, 4-amino-5-(5-cyclopropyl-1,3,4-thiadiazol-2-yl)-2-(8-(4-fluorobenzyl)imidazo[1,2-a]pyrazin-6-yl)-5-methyl-5H-pyrrolo[2,3-d]pyrimidin-6(7H)-one]: the “Maximum peak decrease” value in assay [1] (P.O. 1.0 mpk) is recorded as “B (Category B=SBP in SHRs 20-40 mmHg)”. In addition, at sGC α1/β1 heterodimer, the Emax turned out to be 137% and the midpoint of the response, the EC50, lay at 58 nM.
